Assay results from patent EP0331184A2, “Peptide equivalents of non-peptides and methods of design therefor” (THE BOARD OF TRUSTEES OF THE UNIVERSITY OF ALABAMA FOR ITS …, priority 1988, dated 1989).

Test system: dog kidney Na⁺K⁺ATPase
Test: ³H-ouabain radioreceptor assay
Format: binding
Settings: 10⁻⁴M concentrations
Protocol: The linked-enzyme, spectrophotometric assay measuring hydrolysis of ATP was performed as described in Example 1. The ³H-ouabain radioreceptor assay was performed in 0.5 ml of 50 mM Tris HCl (pH 7.4) containing 0.5 mM EDTA, 4 mM MgSO₄, 80 mM NaCl, 5mM ATP, 7.5 ug of dog kidney Na⁺K⁺ATPase (Sigma), 7.8 nCi of [21, 22-³H]-ouabain (specific activity = 15.6 Ci/mmol; Amersham), and 0.1% gelatin. Test samples were incubated for 2 hr at 37°C; ATP and ³H-ouabain were absent during the first hour but present during the second hour. The glycopeptide 1-39 used in these experiments was isolated to homogeneity as described in Fig. 6; eOLP refers to the partially purified, endogenous ouabain-like substance described in the text, and its amounts are expressed as ul of acetonitrile/TFA. Samples of these preparations, both in acetonitrile/0.1% trifluoroacetic acid, were evaporated under a stream of nitrogen gas and redissolved in 0.1% gelatin in preparation for assay. ³H-ouabain bound to Na⁺K⁺ATPase was recovered on Whatman GF/F glass microfiber filters using vacuum filtration. The filters had been soaked in 0.3% aqueous polyethylenimine for 2 hr immediately before filtration. The filters were added to scintillation fluid in vials and counted in a liquid scintillation spectrometer. […]

In the case of lysine vasopressin, the “displacing activity in the ³H-ouabain radioreceptor assay” value is reported as “no displacing activity”.
In the case of oxytocin, the “displacing activity in the ³H-ouabain radioreceptor assay” value is reported as “no displacing activity”.
